Data published in US8436039B2, “Inhibitors of the ATB(0,+) transporter and uses thereof” (Georgia Health Sciences University Research Institute, Inc., priority 2008, dated 2013).

What was measured:
human ATB^0,+ [1] = target: T1, human ATB^0,+ (Homo sapiens, UniProt Q9UN76); test: L-tryptophan-induced inward currents in X. laevis oocytes expressing human ATB^0,+; format: cell-based; settings: 20 μM L-tryptophan (sub-saturating)
T1 construct: The human ATB^0,+ cDNA was cloned from an MCF7 cell (a human mammary epithelial cancer cell line) cDNA library; expressed in transfected cells; host or cells: Xenopus laevis oocytes injected with 50 ng capped cRNA
T1 sequence (Q9UN76 1-642): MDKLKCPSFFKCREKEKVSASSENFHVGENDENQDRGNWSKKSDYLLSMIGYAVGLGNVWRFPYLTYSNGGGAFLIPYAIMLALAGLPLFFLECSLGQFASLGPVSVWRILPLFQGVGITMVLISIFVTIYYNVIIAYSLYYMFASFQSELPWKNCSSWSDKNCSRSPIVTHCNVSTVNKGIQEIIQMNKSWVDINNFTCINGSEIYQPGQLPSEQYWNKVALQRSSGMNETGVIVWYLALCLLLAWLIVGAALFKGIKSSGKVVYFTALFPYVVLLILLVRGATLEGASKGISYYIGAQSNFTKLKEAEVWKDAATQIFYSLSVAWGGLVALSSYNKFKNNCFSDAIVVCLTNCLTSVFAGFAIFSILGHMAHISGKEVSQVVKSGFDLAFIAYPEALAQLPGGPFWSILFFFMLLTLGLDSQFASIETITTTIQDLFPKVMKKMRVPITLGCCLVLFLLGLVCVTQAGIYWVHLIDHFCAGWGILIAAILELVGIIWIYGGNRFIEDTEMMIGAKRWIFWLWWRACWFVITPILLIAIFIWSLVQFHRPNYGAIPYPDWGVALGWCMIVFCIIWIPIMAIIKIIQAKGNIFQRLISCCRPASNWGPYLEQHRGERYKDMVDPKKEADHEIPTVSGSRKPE
Protocol: Capped cRNA from the cloned mouse or human ATB^0,+ cDNA was synthesized using the mMESSAGE mMACHTNE kit (Ambion, Austin, Tex., U.S.A.). Mature oocytes (stage IV or V) from X. laevis were injected with 50 ng of cRNA. Uninjected oocytes served as controls. The oocytes were used for electrophysiological studies 3-6 days after cRNA injection. Electrophysiological studies were performed by the two-microelectrode voltage-clamp method (Nakanishi et al., 2001, J. Physiol. 532, 297-304). Oocytes were superfused with an NaCl-containing buffer (100 mM NaCl, 2 mM KCl, 1 mM MgCl2, 1 mM CaCl2, 3 mM Hepes, 3 mM Mes and 3 mM Tris, pH 7.5), followed by the same buffer containing tryptophan derivatives. The membrane potential was clamped at −50 mV. The differences between the steady-state currents measured in the presence and absence of substrates were considered as the substrate-induced currents. In the analysis of the saturation kinetics of substrate-induced currents, the kinetic parameter K0.5 (i.e. substrate concentration necessary for induction of half-maximal current) was calculated by fitting the values of the substrate-induced currents to the Michaelis-Menten equation. The Na^+ and Cl^− activation kinetics of substrate-induced currents were analysed by measuring the substrate-specific currents in the presence of increasing concentrations of Na^+ (concentration of Cl^− kept constant at 100 mM) or in the presence of increasing concentrations of Cl^− (concentration of Na^+ kept constant at 100 mM). In these experiments, the composition of the superfusion buffer was modified to contain 2 mM potassium gluconate, 1 mM MgSO4 and 1 mM calcium gluconate in place of KCl, MgCl2 and CaCl2 respectively. The data from these experiments were analysed by the Hill equation to determine the Hill coefficient (h; number of Na^+ and Cl^− ions involved in the activation process). The kinetic parameters were determined by using the commercially available computer program Sigma Plot, version 6.0 (SPSS, Chicago, Ill., U.S.A.). […]

mouse ATB^0,+ [2] = target: T2, mouse ATB^0,+ (Mus musculus, UniProt Q9JMA9); test: Substrate-induced inward currents in X. laevis oocytes expressing mouse ATB^0,+ (two-microelectrode voltage clamp); format: cell-based; settings: saturation kinetics; NaCl; voltage clamp
T2 sequence (Q9JMA9 1-638): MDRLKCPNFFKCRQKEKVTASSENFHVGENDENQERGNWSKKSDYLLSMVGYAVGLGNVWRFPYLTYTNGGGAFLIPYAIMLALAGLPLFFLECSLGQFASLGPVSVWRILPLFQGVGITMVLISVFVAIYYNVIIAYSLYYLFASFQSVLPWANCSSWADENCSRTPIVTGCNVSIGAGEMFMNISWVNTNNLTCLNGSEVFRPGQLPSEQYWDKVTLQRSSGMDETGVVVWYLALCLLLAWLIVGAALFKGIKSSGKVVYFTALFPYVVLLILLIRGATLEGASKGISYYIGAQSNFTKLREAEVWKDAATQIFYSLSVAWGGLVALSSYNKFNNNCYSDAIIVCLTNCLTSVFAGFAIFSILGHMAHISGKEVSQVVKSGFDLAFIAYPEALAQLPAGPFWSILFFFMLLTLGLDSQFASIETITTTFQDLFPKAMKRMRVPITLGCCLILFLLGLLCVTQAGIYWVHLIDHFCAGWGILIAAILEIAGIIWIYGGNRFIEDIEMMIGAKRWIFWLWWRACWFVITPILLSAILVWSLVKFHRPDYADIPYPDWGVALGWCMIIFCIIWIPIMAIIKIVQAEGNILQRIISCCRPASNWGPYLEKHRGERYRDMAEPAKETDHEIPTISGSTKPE
Protocol: (§1) Capped cRNA from the cloned mouse or human ATB^0,+ cDNA was synthesized using the mMESSAGE mMACHTNE kit (Ambion, Austin, Tex., U.S.A.). Mature oocytes (stage IV or V) from X. laevis were injected with 50 ng of cRNA. Uninjected oocytes served as controls. The oocytes were used for electrophysiological studies 3-6 days after cRNA injection. Electrophysiological studies were performed by the two-microelectrode voltage-clamp method (Nakanishi et al., 2001, J. Physiol. 532, 297-304). Oocytes were superfused with an NaCl-containing buffer (100 mM NaCl, 2 mM KCl, 1 mM MgCl2, 1 mM CaCl2, 3 mM Hepes, 3 mM Mes and 3 mM Tris, pH 7.5), followed by the same buffer containing tryptophan derivatives. The membrane potential was clamped at −50 mV. The differences between the steady-state currents measured in the presence and absence of substrates were considered as the substrate-induced currents. In the analysis of the saturation kinetics of substrate-induced currents, the kinetic parameter K0.5 (i.e. substrate concentration necessary for induction of half-maximal current) was calculated by fitting the values of the substrate-induced currents to the Michaelis-Menten equation. The Na^+ and Cl^− activation kinetics of substrate-induced currents were analysed by measuring the substrate-specific currents in the presence of increasing concentrations of Na^+ (concentration of Cl^− kept constant at 100 mM) or in the presence of increasing concentrations of Cl^− (concentration of Na^+ kept constant at 100 mM). In these experiments, the composition of the superfusion buffer was modified to contain 2 mM potassium gluconate, 1 mM MgSO4 and 1 mM calcium gluconate in place of KCl, MgCl2 and CaCl2 respectively. The data from these experiments were analysed by the Hill equation to determine the Hill coefficient (h; number of Na^+ and Cl^− ions involved in the activation process). The kinetic parameters were determined by using the commercially available computer program Sigma Plot, version 6.0 (SPSS, Chicago, Ill., U.S.A.). Uninjected oocytes were used to determine the currents induced by tryptophan derivatives due to entry via transporters that may be constitutively expressed in the oocytes. At a concentration of 2.5 mM, the currents induced by these compounds were in the range of 0-3 nA in uninjected oocytes. These currents were less than 2% of the corresponding currents induced in ATB^0,+ cRNA-injected oocytes. Therefore the endogenous currents associated with the constitutively expressed transporters were not considered in the analysis of kinetic parameters of ATB^0,+ transport activity.
The above studies with the mammalian cell expression system have focused on the interaction of 1-methyltryptophan and other tryptophan derivatives with ATB^0,+ by examining the effects of these compounds on the transporter-mediated glycine uptake. These studies have shown convincingly that 1-methyltryptophan interacts with ATB^0,+, with the L-isomer having much higher affinity for the transporter than the D-isomer. However, these studies have not shown whether or not 1-methyltryptophan is actually a transportable substrate for ATB^0,+. It is possible that 1-methyltryptophan inhibits ATB^0,+-mediated glycine uptake simply by blocking the interaction of glycine with the substrate-binding site of the transporter, rather than by actually competing with glycine for the transport process. […] We wanted to know whether 1-methyltryptophan can actually be transported by ATB^0,+. For this, we used the X. laevis oocyte expression system. Since the transport process mediated by ATB^0,+ is electrogenic, exposure of ATB^0,+-expressing oocytes to transportable substrates will induce an inward current in an Na^+- and Cl^−-dependent manner. Exposure of the same oocytes to blockers will interfere with currents induced by transportable substrates, but will not induce currents by themselves. […]

mouse ATB^0,+ [3] = target: T2, mouse ATB^0,+; test: Inhibition of ATB^0,+-mediated glycine uptake in HRPE cells expressing cloned mouse ATB^0,+; format: cell-based; settings: glycine 10 μM; inhibitor 1 mM; 30 min; NaCl; HRPE cells
HCT116 and LS174T cells [4] = test: Apoptosis (sub-G1 cells, FACS) in colon cancer cell lines; format: cell-based, human; settings: 72 hours
Protocol: (§2) The mTOR pathway plays a critical role in nutrient signaling in mammalian cells (Wang and Proud, 2006, Physiology (Bethesda) 21: 362-369). Amino acid starvation leads to specific changes in this pathway. We sought evidence for amino acid starvation in ATB^0,+-positive colon cancer cell lines when exposed to α-methyl-L-tryptophan (α-MLT) (250 μM). […] These changes were also accompanied with cell cycle arrest in cancer cell lines (FIG. 16). In the normal cell line CCD841, there was no difference between control and α-MLT-treated cells in terms of percent of cells in difference cell cycle stages. […] The phosphorylation pattern observed in the two cancer cell lines is a hallmark of changes in mTOR pathway in response to amino acid deprivation. Autophagy (self-cannabilism) is another cellular process that is induced when cells undergo amino acid deprivation (Eisenberg-Lerner and Kimchi, 2009, Apoptosis 14: 376-391). To survive in the absence of exogenous essential amino acids during amino acid deprivation, cells engage in autophagic degradation of intracellular macromolecules and organelles as a source of these amino acids. Therefore, we investigated the process of autophagy in LS174T cells with and without exposure to α-MLT for 24 hours. For this, we analyzed the distribution of LC-3 protein. […] Apoptosis was quantified by FACS analysis.

HCT116 and LS174T cells [5] = test: Amino acid starvation markers: ASNS and CHOP gene induction in ATB^0,+-positive colon cancer cell lines; format: cell-based, human; settings: 250 μM; 24 hour exposure
Protocol: as §2

CCD841 cells [6] = test: mTOR pathway: phosphorylation of S6 protein and S6 kinase in normal colon cell line; format: cell-based, human; settings: 24 h exposure
Protocol: as §2

HCT116 and LS174T cells [7] = test: Cell cycle analysis in colon cancer cell lines; format: cell-based, human; settings: 250 μM; 24 hour
Protocol: as §2

human ATB^0,+ [8] = target: T1, human ATB^0,+; test: Block of inward currents induced by amino acid mixture simulating plasma in X. laevis oocytes expressing human ATB^0,+; format: cell-based
Protocol: as §1
These studies with α-methyl-DL-tryptophan as a blocker of ATB^0,+ were carried out with L-tryptophan at sub-saturating concentrations. […] Therefore, using the Xenopus oocyte heterologous expression system, we monitored the transport activity of human ATB^0,+ in the presence of an amino acid mixture consisting of 18 different amino acids, each at its respective physiological concentration found in plasma (Glew et al., 2004, Clin. Chim. Acta 342, 179-185) (Table 1). Inward currents were detected under these conditions in oocytes expressing human ATB^0,+. […] We then monitored the ability of α-methyl-DL-tryptophan to block the inward currents induced by the same mixture of amino acids in oocytes expressing human ATB^0,+ (FIG. 4B). […]

HCT116 and LS174T cells [9] = test: mTOR pathway: phosphorylation of S6 protein and S6 kinase in colon cancer cell lines; format: cell-based, human; settings: 24 h exposure
Protocol: as §2

LS174T cells = test: Autophagy: immunofluorescent localization of LC-3 in colon cancer cells; format: cell-based, human; settings: 24 hours exposure
Protocol: as §2

CCD841 cells [10] = test: Autophagy: immunofluorescent localization of LC-3 in normal colon cells; format: cell-based, human; settings: absence or presence of α-MLT
CCD841 cells [11] = test: Cell cycle analysis in normal colon cell line; format: cell-based, human; settings: 250 μM; 24 hour
Protocol: as §2

| Structure (SMILES) | inward currents induced by L-tryptophan (human ATB^0,+ [1]) [nA] | Michaelis constant (K0.5) of substrate-induced currents (mouse ATB^0,+ [2]) [µM] | inhibition of ATB^0,+-specific glycine uptake (mouse ATB^0,+ [3]) | percent of apoptotic cells (cells in sub-G1 phase) (HCT116 and LS174T cells [4]) | induction of ASNS and CHOP genes (HCT116 and LS174T cells [5]) | phosphorylation of S6 protein and S6 kinase (CCD841 cells [6]) | percent of cells in G1 phase (HCT116 and LS174T cells [7]) | percent of cells in S and G2/M phases (HCT116 and LS174T cells [7]) | IC50 (human ATB^0,+ [8]; 18 amino acids at normal plasma concentrations, read-out: concentration necessary to elicit 50% of maximal inhibition (IC50) of amino acid mixture-induced currents) [µM] | IC50 of L-isomer relative to DL-form (times less) (human ATB^0,+ [8]; amino acid mixture simulating plasma) [times] | phosphorylation of S6 protein and S6 kinase (HCT116 and LS174T cells [9]) | punctate fluorescent signals for LC-3 (autophagy) (LS174T cells) | autophagy (CCD841 cells [10]) | percent of cells in different cell cycle stages, control versus treated (CCD841 cells [11]) |
| --- | --- | --- | --- | --- | --- | --- | --- | --- | --- | --- | --- | --- | --- | --- |
| N[C@@H](Cc1c[nH]c2ccccc12)C(=O)O [L-tryptophan] | ~30 | 26 ± 3 | inhibited |  |  |  |  |  |  |  |  |  |  |  |
| C[C@](N)(Cc1c[nH]c2ccccc12)C(=O)O [α-methyl-L-tryptophan, α-Methyl-L-Tryptophan] |  |  |  | increased the percent of apoptotic cells | induced | not in CCD841 cells | increased significantly | decreased | 18 ± 5 | 14 | decreased phosphorylation | showed clear evidence of such signals | did not undergo autophagy | no difference |
